Experimental data taken from patent US9643969B2, “(aza)indolizine derivative and pharmaceutical use thereof” (KISSEI PHARMACEUTICAL CO., LTD., priority 2010, dated 2017).

Key:
[1] = target: T1, Xanthine oxidase (from bovine milk) (Bos taurus, UniProt P80457); experiment: Xanthine oxidase inhibitory activity; type: biochemical; details: xanthine 200 μM added at 100 μL/well, 10 minutes at room temperature, absorbance at 290 nm
T1 construct: Xanthine oxidase (from bovine milk, manufactured by Sigma); purchased Sigma; host or cells: bovine milk
T1 sequence (P80457 whole entry): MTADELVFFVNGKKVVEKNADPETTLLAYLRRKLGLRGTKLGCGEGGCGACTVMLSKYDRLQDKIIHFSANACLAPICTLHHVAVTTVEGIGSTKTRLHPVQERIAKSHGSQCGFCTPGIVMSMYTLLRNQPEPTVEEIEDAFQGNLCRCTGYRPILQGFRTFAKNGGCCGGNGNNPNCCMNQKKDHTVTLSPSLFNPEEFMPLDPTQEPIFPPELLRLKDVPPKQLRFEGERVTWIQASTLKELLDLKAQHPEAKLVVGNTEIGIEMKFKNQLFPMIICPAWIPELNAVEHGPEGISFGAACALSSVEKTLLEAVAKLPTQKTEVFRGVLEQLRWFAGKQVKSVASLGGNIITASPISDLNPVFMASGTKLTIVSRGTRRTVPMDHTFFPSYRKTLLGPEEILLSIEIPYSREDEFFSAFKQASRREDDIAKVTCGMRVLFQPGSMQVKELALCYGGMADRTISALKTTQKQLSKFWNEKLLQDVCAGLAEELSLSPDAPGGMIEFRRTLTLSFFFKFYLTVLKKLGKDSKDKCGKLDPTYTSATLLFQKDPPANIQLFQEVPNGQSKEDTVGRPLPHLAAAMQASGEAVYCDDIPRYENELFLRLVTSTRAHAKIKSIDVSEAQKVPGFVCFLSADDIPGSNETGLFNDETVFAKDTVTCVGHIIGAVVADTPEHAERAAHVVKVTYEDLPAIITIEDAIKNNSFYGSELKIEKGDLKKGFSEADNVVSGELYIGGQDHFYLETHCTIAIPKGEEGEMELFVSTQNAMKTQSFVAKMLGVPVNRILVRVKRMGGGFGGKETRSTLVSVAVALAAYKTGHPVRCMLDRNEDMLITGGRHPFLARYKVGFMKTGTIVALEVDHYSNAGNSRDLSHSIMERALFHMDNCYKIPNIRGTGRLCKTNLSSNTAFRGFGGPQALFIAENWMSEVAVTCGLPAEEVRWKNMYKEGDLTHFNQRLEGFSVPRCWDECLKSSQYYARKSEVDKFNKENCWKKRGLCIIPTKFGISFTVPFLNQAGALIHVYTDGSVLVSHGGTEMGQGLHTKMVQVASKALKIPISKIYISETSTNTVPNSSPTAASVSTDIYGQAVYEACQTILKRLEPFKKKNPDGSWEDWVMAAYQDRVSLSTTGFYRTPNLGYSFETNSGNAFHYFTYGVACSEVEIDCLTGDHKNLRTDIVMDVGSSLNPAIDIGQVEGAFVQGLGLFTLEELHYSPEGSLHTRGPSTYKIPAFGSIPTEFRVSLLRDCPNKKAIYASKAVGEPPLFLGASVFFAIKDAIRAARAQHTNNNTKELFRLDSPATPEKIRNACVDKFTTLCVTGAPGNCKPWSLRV
Method: Xanthine Oxidase Inhibitory Activity
(1) Preparation of Test Compounds
Test compounds were dissolved in dimethyl sulfoxide (DMSO) (manufactured by Wako pure chemical) at 40 mM concentration and then diluted to intended concentrations with phosphate-buffered saline (PBS).
(2) Method of Measurement
Xanthine oxidase (from bovine milk, manufactured by Sigma) was prepared with phosphate-buffered saline (PBS) at 0.02 units/mL, and then the solution was added to 96-well plates at 50 μL/well. In addition, test compounds diluted with PBS were added at 50 μL/well. Xanthine (manufactured by Wako pure chemical) at 200 μM prepared with PBS was added at 100 μL/well, and the reaction was conducted for 10 minutes at room temperature. Absorbance at 290 nm was measured by using a microplate reader SpectraMax Plus 384 (manufactured by Molecular device). The absorbance under a condition without xanthine is 0%, and control without test compounds is 100%. Fifty % inhibitory concentration of a test compound (IC50) was calculated (Table 4). “Ex. No” in the table indicates Example number.

human URAT1 = target: T2, human URAT1 (Homo sapiens, UniProt Q96S37); experiment: Inhibitory activity of uric acid transport with human URAT1-expressing cells; type: cell-based; details: 10 μM test compound; URAT1-expressing HEK293 cells; 14C uric acid 50 μM, 2 minutes at 37° C.; read-out: percent inhibition of uric acid uptake
T2 construct: expressed in transfected cells; host or cells: HEK293 cells
T2 sequence (Q96S37 1-553): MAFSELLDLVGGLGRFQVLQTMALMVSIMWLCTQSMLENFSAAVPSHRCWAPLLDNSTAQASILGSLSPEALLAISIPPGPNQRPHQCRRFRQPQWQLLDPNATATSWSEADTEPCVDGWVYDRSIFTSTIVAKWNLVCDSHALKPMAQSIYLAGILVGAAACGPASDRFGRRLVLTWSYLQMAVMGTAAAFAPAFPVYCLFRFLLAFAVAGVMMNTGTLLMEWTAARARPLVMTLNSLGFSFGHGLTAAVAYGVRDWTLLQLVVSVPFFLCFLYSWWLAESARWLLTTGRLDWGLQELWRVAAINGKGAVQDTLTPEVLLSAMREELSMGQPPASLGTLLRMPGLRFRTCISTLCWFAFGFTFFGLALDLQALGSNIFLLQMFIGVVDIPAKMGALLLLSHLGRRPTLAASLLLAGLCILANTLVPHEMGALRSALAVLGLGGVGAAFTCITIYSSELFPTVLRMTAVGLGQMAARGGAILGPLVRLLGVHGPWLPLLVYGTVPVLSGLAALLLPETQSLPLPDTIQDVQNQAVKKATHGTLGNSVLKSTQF
Method: Inhibitory Activity of Uric Acid Transport with Human URAT1-Expressing Cells
(1) Cells Used in the Test
URAT1-expressing HEK293 cells (HEK293 cells transfected with vector containing human URAT1 cDNA) and control cells (HEK293 cells transfected with vector alone) were used.
URAT1-expressing cells and control cells were seeded in collagen I-coated 24-well plates (manufactured by BD FALCON) at 1 to 4×10^5 cells/well, and cultured in CO2 incubator (37° C., CO2: 5%) for 1 to 3 days, and then the following measurement of uric acid transport was conducted. In addition, Dulbecco's Modified Eagle Medium (manufactured by Invitrogen) containing 9% fetal bovine serum (manufactured by Invitrogen), antibiotic-antimycotic (manufactured by Invitrogen) and 2 mmol/L L-glutamine were used for the culture.
(2) Preparation of Test Compounds
^14C-labeled uric acid (^14C uric acid) (manufactured by American Radiolabeled Chemicals, Inc.) was dissolved in Hanks' balanced salt solution (HBSS) (manufactured by Invitrogen) to prepare HBSS containing ^14C uric acid at 50 μM. Test compounds were dissolved in DMSO and then diluted to 1000-fold with the prepared HBSS containing ^14C uric acid above to prepare ^14C uric acid solution containing the indicated concentration of test compounds (final concentration of DMSO: 0.1%). ^14C uric acid solution containing 0.1% DMSO was prepared as a control.
(3) Measurement of Uric Acid Transport
After the medium was removed from the plates in which cells were seeded, and 1 mL of HBSS was added to the cells. After the HBSS was removed, 0.3 mL of HBSS was newly added to the cells, which were incubated at 37° C. for 15 minutes. After the HBSS was removed, 0.3 mL of ^14C uric acid solution containing 0.1% DMSO or test compounds was added to the cells, which were then incubated at 37° C. for 2 minutes. After the incubation, the solution was removed, and the cells were washed once with 1 mL of ice-cold phosphate-buffered saline containing 0.2% BSA, and washed twice with 1 mL of ice-cold PBS. After the PBS was removed, the cells were lysed by addition of 0.5 mL of 0.1 mol/L NaOH aqueous solution for each well. The cell lysates (0.3 mL/well) were transferred into glass vials, and mixed with 10 mL of a scintillator (Hionic-Fluor, manufactured by Perkin Elmer). The radioactivity was measured by means of a liquid scintillation counter.
(4) Protein Determination
Protein concentration in the cell lysates was determined by BCA Protein Assay Kit (manufactured by Pierce) and then amount of protein (mg/well) was calculated.
(5) Calculation of the Percent Inhibition of Uric Acid Uptake for Each Compound
Uric acid uptake activity in each well was calculated by the following formula. Uric acid uptake activity (p mol/mg protein)=radioactivity (dpm/well)/[amount of protein (mg/well)×concentration of radioactivity in HBSS containing ^14C uric acid (dpm/p mol)]
Percent inhibition was calculated according to the following formula. Percent inhibition (%)=[1−(B−C)/(A−C)]×100 • A: Uric acid uptake activity in URAT1-expressing HEK293 cells in the presence of 0.1% DMSO • B: Uric acid uptake activity in URAT1-expressing HEK293 cells in the presence of test compounds • C: Uric acid uptake activity in control cells in the presence of 0.1% DMSO (6) Results

Acute toxicity test = type: in vivo; details: 300 mg/kg orally, male ICR mice, 24 hours after administration
Method: Test compounds of Examples 2 and 12 (300 mg/kg) suspended in 0.5% methylcellulose solution were orally administered to male ICR mice (7-week-old, 5 mice per group), and the general condition during 24 hours after administration was observed.

[2] = Hypouricemic effect (serum uric acid levels in rats); type: in vivo; details: oral administration at 1 mg/kg; male CD (SD) IGS rats; serum at 2 hours after administration
Method: (1) Method of Measurement
Test compounds (1 mg/kg) suspended in 0.5% methylcellulose solution were orally administered to overnight fasted male CD (SD) IGS rats (5-week-old, Charles River Japan). At 2 hours after administration, blood was collected under ether anesthesia from abdominal aorta, and serum was separated according to a general method. Serum uric acid levels were determined by use of uric acid measurement kit (Uric acid C-Test Wako: manufactured by Wako pure chemical), and percent decrease in uric acid was calculated according to the formula described below. Percent decrease in uric acid (%)=(Serum uric acid levels in control animals−Serum uric acid levels in animals administered test compounds)×100/Serum uric acid levels in control animals (2) Results

Compound | IC50 [1] | inhibition at 10 µM (human URAT1) | general condition (Acute toxicity test) | percent decrease in uric acid [2]
N#Cc1cc(-c2ccc(C(=O)O)cc2)n2ncccc12 [Example 10] | 12 nM |  |  | 
N#Cc1cc(-c2ccc(C(=O)O)cc2)c2cccnn12 [Example 1, 4-(7-Cyanopyrrolo[1,2-b]pyridazine-5-yl)benzoic acid] | 7 nM |  |  | 
Cc1ccnn2c(-c3ccc(C(=O)O)cc3)cc(C#N)c12 [Example 11, 4-(5-Cyano-4-methylpyrrolo[1,2-b]pyridazine-7-yl)benzoic acid] | 10 nM |  |  | 
N#Cc1cc(-c2ccc(C(=O)O)cc2)c2ccccn12 [Example 7] | 8 nM |  |  | 
N#Cc1cc(-c2ccc(C(=O)O)c(O)c2)n2ncccc12 [Example 12] | 4 nM | ≥ 50% | no abnormalities in general conditions were observed | 
N#Cc1cn(-c2ccc(C(=O)O)c(O)c2)c2cccnc12 [Example 15, 4-(3-Cyanopyrrolo[3,2-b]pyridine-1-yl)-2-hydroxy benzoic acid] | 10 nM |  |  | 
N#Cc1cc(-c2ccc(C(=O)O)c(O)c2)c2cccnn12 [Example 2, 4-(7-Cyanopyrrolo[1,2-b]pyridazine-5-yl)-2-hydroxy benzoic acid] | 5 nM |  | no abnormalities in general conditions were observed | 

Now from value to compound, other results behind:

IC50 [1] | inhibition at 10 µM (human URAT1) | Compound | general condition (Acute toxicity test) | percent decrease in uric acid [2]
12 nM | ≥ 50% | N#Cc1cc(-c2ccc(C(=O)O)c(O)c2)c2ccccn12 [Example 8] |  | 
4 nM | ≥ 50% | N#Cc1cc(-c2ccc(C(=O)O)c(O)c2)c2ccc(F)cn12 [Example 9] |  | 
5 nM | ≥ 50% | Cc1ccc2c(-c3ccc(C(=O)O)c(O)c3)cc(C#N)n2n1 [Example 3] |  | not less than 60%
3 nM | ≥ 50% | COc1ccc2c(-c3ccc(C(=O)O)c(O)c3)cc(C#N)n2n1 [Example 6] |  | 
13 nM | ≥ 50% | Cc1ccc2c(-c3ccc(C(=O)O)c(O)c3)cc(C#N)n2c1C [Example 16] |  | 
